This note sets out measurements from patent US12384765B2, “Catecholamine prodrugs for use in the treatment of Parkinson's Disease” (H. Lundbeck A/S, priority 2019, dated 2025).

Data set [1] can be described thus: Conversion of compounds in human plasma. The conditions noted are these: 1 μM test compound, 37° C., 0-6 hr; nd: not detected. Format: in vitro ADME. The method, then: Frozen human plasma was thawed and then centrifuged at 3200×g for 5 min to remove debris. The pH value of the supernatant was then measured and adjusted to 7.4±0.1 by adding 1% phosphoric acid or 1 N sodium hydroxide. 2 μL of dosing solution (50 μM for test compounds and 100 μM for positive control (propantheline bromide)) was mixed with 98 μL of blank plasma to achieve 1 μM test compound and 2 μM positive control of final concentration. The mixture was incubated, and samples were withdrawn from the incubations at the pre-determined time points of 0, 0.5, 1, 2, 4 and 6 hr (in duplicate) at 37° C. in water bath. At each corresponding time point 10 μL inhibitor and 20 μL ascorbic acid and 2 μL formic acid (20%) are added, and then added 400 μL of “stop solution” (200 ng/mL tolbutamide plus 200 ng/mL labetalol in 50% ACN/MeOH) to precipitate protein. The substance was mixed thoroughly and thereafter Centrifugated at 4,000 rpm for 20 minutes. Then an aliquot of supernatant (50 μL) was transferred from each well to a sample plate and mixed with 100 μL ultrapure water. The plate was shaked at 800 rpm for about 10 minutes before submitting to LC-MS/MS analysis.
(§1) Mass spectrometer (LC-MS/MS) Shimadzu LC 20-AD Shimadzu UHPLC API 4000. Analytical column ACQUITY UPLC® BEH Phenyl 1.7 μm 2.1×50 mm. Mobile phase A: 0.1% Formic Acid in Water. Mobile phase B: 0.1% Formic Acid in Acetonitrile. […] Flow rate 0.7 mL/min.

The test system of the next data set is human hepatocytes. Briefly: Conversion of compounds in human hepatocytes. The data set is classed as in vitro ADME. The settings on record: 1 μM compound, 37° C.; nd: not detected. The method, then:
Incubations were conducted in 96-well plates at 1 μM compound concentration in duplicate. The hepatocyte cell concentration was 0.5×10^6 cells/mL used for final incubation at 37° C. in an incubator of 5% CO2 95% relative humidity. The medium control samples were included at 0 and 60 minutes in the absence of cells. The total organic concentration was 1% (DMSO 0.1%) in the final incubation. The controls, (7-ethoxycoumarin and 7-hydroxycoumarin) was incubated parallel at 3 μM. 2 μL of dosing solution (50 μM for test compounds and 100 μM for positive control) was mixed with 98 μL of 100 mM PBS to achieve 1 μM test compound and 2 μM positive control of final concentration. The mixture was incubated, and samples were withdrawn from the incubations at pre-determined time points of 0, 0.5, 1, 2, 4 and 6 hr (in duplicate) at 37° C. in water bath. To each sample, 10 μL inhibitor and 20 μL ascorbic acid and 2 μL formic acid (20%) were added followed by 400 μL of stop solution (200 ng/mL tolbutamide plus 200 ng/mL labetalol in 50% ACN/MeOH). The substance was mixed thoroughly and thereafter centrifuged at 4,000 rpm for 20 minutes. An aliquot of supernatant (50 μL) from each well were transferred to a sample plate and mixed with 100 μL ultrapure water. The plate was shaked at 800 rpm for about 10 minutes before submitting to LC-MS/MS analysis.
as §1

The nature of data set [2]: PK experiments in rats, plasma compound (I) after oral dosing. Format: in vivo, Han Wistar rats. The conditions noted are these: oral dosing, rats. On the procedure:
Plasma was placed on water-ice following collection. Final storage at approximately −70° C.
Mobile phase B: Acetonitrile. […] Flow rate 0.5 mL/min.
The rats had unrestricted access to the diet.
Mobile phase B: Acetonitrile+0.2% formic acid. […] Flow rate 0.3 mL/min.
The rats received a standard laboratory diet Teklad 2014C. The rats had unrestricted access to the diet.

The target of a further data set is human 5-HT2B receptor (Homo sapiens (Human), UniProt P41595). Put plainly: 5-HT2B agonist activity assay (IP1 production, HTRF). Format: cell-based. The conditions noted are these: read-out: 5-HT2B agonist activity, percent of control response. On the procedure: Evaluation of the agonist activity of compounds (I), (Ia), (Ib), (Ic), (Ia-iab), compound (2), compound (9), compound (15), compound (27), A2, A3, and A7 at the human 5-HT2B receptor was performed by Eurofins/Cerep (France) measuring the compound effects on inositol monophosphate (IP1) production using the HTRF detection method. Briefly, the human 5-HT2B receptor was expressed in transfected CHO cells. The cells were suspended in a buffer containing 10 mM Hepes/NaOH (pH 7.4), 4.2 mM KCl, 146 mM NaCl, 1 mM CaCl2, 0.5 mM MgCl2, 5.5 mM glucose and 50 mM LiCl, then distributed in microplates at a density of 4100 cells/well and incubated for 30 minutes at 37° C. in the presence of buffer (basal control), test compound or reference agonist. For stimulated control measurement, separate assay wells contained 1 μM 5-HT. Following incubation, the cells were lysed and the fluorescence acceptor (fluorophen D2-labeled IP1) and fluorescence donor (anti-IP1 antibody labeled with europium cryptate) were added. After 60 minutes at room temperature, the fluorescence transfer was measured at lambda(Ex) 337 nm and lambda(Em) 620 and 665 nm using a microplate reader (Rubystar, BMG). The IP1 concentration was determined by dividing the signal measured at 665 nm by that measured at 620 nm (ratio). The results were expressed as a percent of the control response to 1 μM 5-HT. The standard reference agonist was 5-HT, which was tested in each experiment at several concentrations to generate a concentration-response curve from which its EC50 value is calculated as described above for dopamine functional assays.
(In general: In TR-FRET formats the signal depends on donor and acceptor labels being close together.)

Molecules are shown by their SMILES. Entries after “also recorded” stand apart in the source; their conditions may differ.

Chain of human 5-HT2B receptor (P41595 whole entry): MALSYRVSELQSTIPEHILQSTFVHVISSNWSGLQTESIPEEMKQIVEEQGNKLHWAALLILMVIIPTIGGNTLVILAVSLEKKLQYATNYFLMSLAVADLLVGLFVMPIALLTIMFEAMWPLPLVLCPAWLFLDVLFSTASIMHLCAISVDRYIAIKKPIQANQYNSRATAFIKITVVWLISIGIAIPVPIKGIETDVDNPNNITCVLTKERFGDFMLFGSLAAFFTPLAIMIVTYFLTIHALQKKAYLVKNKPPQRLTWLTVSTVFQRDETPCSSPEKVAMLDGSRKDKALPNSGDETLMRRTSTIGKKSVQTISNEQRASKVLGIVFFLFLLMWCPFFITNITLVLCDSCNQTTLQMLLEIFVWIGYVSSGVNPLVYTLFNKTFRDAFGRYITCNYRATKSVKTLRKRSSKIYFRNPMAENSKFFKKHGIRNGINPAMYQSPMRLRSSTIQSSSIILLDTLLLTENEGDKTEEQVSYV

As for `CCCN1CCC[C@@H]2Cc3c(ccc(OCc4ccccc4)c3O[C@@H]3O[C@H](C(=O)OCC)[C@@H](OC(C)=O)[C@H](OC(C)=O)[C@H]3OC(C)=O)C[C@H]21` [Compound (10), (2S,3R,4S,5S,6S)-2-(((4aR,10aR)-7-(benzyloxy)-1-propyl-1,2,3,4,4a,5,10,10a-octahydrobenzo[g]quinolin-6-yl)oxy)-6-(ethoxycarbonyl)tetrahydro-2H-pyran-3,4,5-triyl triacetate], in data set [1], the “Observed metabolite, Incubation in human plasma” value is given as “Compound A2,; also recorded: Compound (4)”. For the same compound, in the data set on human hepatocytes, the “Observed metabolite, Incubation in human hepatocytes” value is on record as “Compound A2,; also recorded: Compound (4)”.
Consider `CCCN1CCC[C@@H]2Cc3c(ccc(OCc4ccccc4)c3O[C@@H]3O[C@H](C(=O)OCc4ccccc4)[C@@H](OC(=O)C(C)(C)C)[C@H](OC(=O)C(C)(C)C)[C@H]3OC(=O)C(C)(C)C)C[C@H]21` [Compound (5), (2S,3R,4S,5S,6S)-2-(((4aR,10aR)-7-(benzyloxy)-1-propyl-1,2,3,4,4a,5,10,10a-octahydrobenzo[g]quinolin-6-yl)oxy)-6-((benzyloxy)carbonyl)tetrahydro-2H-pyran-3,4,5-triyl tris(2,2-dimethylpropanoate)], for which the “Observed metabolite, Incubation in human plasma” value in data set [1] is “Compound (24)”. The “Observed metabolite, Incubation in human hepatocytes” value in the data set on human hepatocytes was “Compound (24)”.
As for `CCCN1CCC[C@@H]2Cc3c(ccc(OCc4ccccc4)c3O[C@@H]3O[C@H](C(=O)OC)[C@@H](OC(C)=O)[C@H](OC(C)=O)[C@H]3OC(C)=O)C[C@H]21` [Compound (1), (2S,3R,4S,5S,6S)-2-(((4aR,10aR)-7-(benzyloxy)-1-propyl-1,2,3,4,4a,5,10,10a-octahydrobenzo[g]quinolin-6-yl)oxy)-6-(methoxycarbonyl)tetrahydro-2H-pyran-3,4,5-triyl triacetate], the “Observed metabolite, Incubation in human plasma” value in data set [1] was “Compound A2,; also recorded: compound (2)”. The “Observed metabolite, Incubation in human hepatocytes” value in the data set with human hepatocytes was “Compound A2,; also recorded: Compound (4)”.
For `CCCN1CCC[C@@H]2Cc3c(ccc(OC)c3O[C@@H]3O[C@H](C(=O)OCc4ccccc4)[C@@H](OC(=O)C(C)(C)C)[C@H](OC(=O)C(C)(C)C)[C@H]3OC(=O)C(C)(C)C)C[C@H]21` [Compound (20), (2S,3S,4S,5R,6S)-2-((benzyloxy)carbonyl)-6-(((4aR,10aR)-7-methoxy-1-propyl-1,2,3,4,4a,5,10,10a-octahydrobenzo[g]quinolin-6-yl)oxy)tetrahydro-2H-pyran-3,4,5-triyltris(2,2-dimethylpropanoate)], the “Observed metabolite, Incubation in human plasma” value in data set [1] is given as “Compound (21)”. Besides, in the data set on human hepatocytes, the “Observed metabolite, Incubation in human hepatocytes” value is “Compound (21)”.
Turning to `CCCN1CCC[C@@H]2Cc3c(ccc(OCc4ccccc4)c3O[C@@H]3O[C@H](C(=O)OCC)[C@@H](OC(=O)C(C)(C)C)[C@H](OC(=O)C(C)(C)C)[C@H]3OC(=O)C(C)(C)C)C[C@H]21` [Compound (13), (2S,3R,4S,5S,6S)-2-(((4aR,10aR)-7-(benzyloxy)-1-propyl-1,2,3,4,4a,5,10,10a-octahydrobenzo[g]quinolin-6-yl)oxy)-6-(ethoxycarbonyl)tetrahydro-2H-pyran-3,4,5-triyl tris(2,2-dimethylpropanoate)], the “Observed metabolite, Incubation in human hepatocytes” value with human hepatocytes is recorded as “Compound (14)”.
Regarding `CCCN1CCC[C@@H]2Cc3c(ccc(OC)c3O)C[C@H]21` [Compound A7, (4aR,10aR)-7-methoxy-1-propyl-1,2,3,4,4a,5,10,10a-octahydrobenzo[g]quinolin-6-ol], the “Observed metabolite, Incubation in human hepatocytes” value with human hepatocytes was “Compound (I)”. Also, in data set [2], the “Observed metabolite, In vivo PK study after oral dosing (rats)” value is reported as “Compound (I)”. Moreover, the activity at 10 µM on human 5-HT2B receptor was found to be 27%.
Regarding `CCCN1CCC[C@@H]2Cc3c(ccc(O[C@@H]4O[C@H](C(=O)O)[C@@H](O)[C@H](O)[C@H]4O)c3O[C@@H]3O[C@H](C(=O)O)[C@@H](O)[C@H](O)[C@H]3O)C[C@H]21` [(Id-iab), (2S,2′S,3S,3′S,4S,4′S,5R,5′R,6S,6′S)-6,6′-(((4aR,10aR)-1-propyl-1,2,3,4,4a,5,10,10a-octahydrobenzo[g]quinoline-6,7-diyl)bis(oxy))bis(3,4,5-trihydroxytetrahydro-2H-pyran-2-carboxylic acid)], in data set [1], the “Observed metabolite, Incubation in human plasma” value is given as “Compound (I)”. In addition, in the data set with human hepatocytes, the “Observed metabolite, Incubation in human hepatocytes” value was “Compound (I)”. In addition, the “Observed metabolite, In vivo PK study after oral dosing (rats)” value in data set [2] is recorded as “Compound (I)”.
For the compound `CCCN1CCC[C@@H]2Cc3c(ccc(OCc4ccccc4)c3O[C@@H]3O[C@H](C(=O)OC)[C@@H](OC(=O)C(C)(C)C)[C@H](OC(=O)C(C)(C)C)[C@H]3OC(=O)C(C)(C)C)C[C@H]21` [Compound (25), (2S,3R,4S,5S,6S)-2-(((4aR,10aR)-7-(benzyloxy)-1-propyl-1,2,3,4,4a,5,10,10a-octahydrobenzo[g]quinolin-6-yl)oxy)-6-(methoxycarbonyl)tetrahydro-2H-pyran-3,4,5-triyl tris(2,2-dimethylpropanoate)], the “Observed metabolite, Incubation in human plasma” value in data set [1] was “Compound A2,; also recorded: Compound (24)”. Moreover, the “Observed metabolite, Incubation in human hepatocytes” value with human hepatocytes is recorded as “Compound A2,; also recorded: Compound (24)”.
Turning to `CCCN1CCC[C@@H]2Cc3c(ccc(OC)c3O[C@@H]3O[C@H](C(=O)OC)[C@@H](OC(=O)C(C)(C)C)[C@H](OC(=O)C(C)(C)C)[C@H]3OC(=O)C(C)(C)C)C[C@H]21` [Compound (22), (2S,3S,4S,5R,6S)-2-((methoxy)carbonyl)-6-(((4aR,10aR)-7-methoxy-1-propyl-1,2,3,4,4a,5,10,10a-octahydrobenzo[g]quinolin-6-yl)oxy)tetrahydro-2H-pyran-3,4,5-triyl tris(2,2-dimethylpropanoate)], the “Observed metabolite, Incubation in human plasma” value in data set [1] is reported as “Compound (21)”. For the same compound, the “Observed metabolite, Incubation in human hepatocytes” value in the data set with human hepatocytes is “Compound (21)”.
